Source: patent US12280121B2, “Immunoconjugates and methods” (Immunome, Inc., priority 2021, dated 2025)
Like-named read-outs stand apart in the source and are kept apart here.

How the values were obtained:
[1] = Human hepatocyte clearance (HHEP CL); type: in vitro ADME; design: CLint scaled / half-life: dose or concentration left out as unconfirmed; conditions: both sexes
Method: Suspensions of human hepatocytes (from 10 mixed gender human donors, final concentration 0.5×10^6 cell/mL) in Williams' E medium were incubated for 90 min with a test compound (0.90% acetonitrile and 0.10% DMSO, final concentration […]) and positive controls (7-Ethoxycoumarin, 7-Hydroxycoumarin, 0.90% acetonitrile and 0.10% DMSO, final concentration […]), with constant shaking at about 600 rpm at 37° C. in an incubator at 5% CO2 and 95% humidity. The total volume of incubation was 200 μl. A sample ([…]) was taken out at TO, 15, 30, 60 and 90 min, which was added intermediately to the ice-cold stop solution (acetonitrile with 200 ng/mL of tobutamide and labetalol as internal standard) (125 μl), and vortexed at 500 rpm for 10 min, centrifuged at 3220×g for 20 min at 4° C. Analytical plates are sealed and stored at 4° C. until LCMS analysis. Viability of hepatocytes at pre-incubation was determined to be 84.5%.
(§1) Human liver microsome clearance assay assess metabolism by the cytochrome P450 system (phase I enzymes). These enzymes oxidize substrates by incorporating oxygen atoms into hydrocarbons, thus causing the introduction of hydroxyl groups, or N- O- and S-dealkylation of substrates and forming more polar products easier to be cleared. Human hepatocyte clearance assay measures more broadly the overall cellular metabolism of the test compound (phase I and phase II enzyme pathways). Phase II enzymes catalyze the conjugation reaction of xenobiotic metabolites and charged species, such as glutathione, sulfate, glycine, or glucuronic acid to form even more polar compounds for easier clearance.

[2] = Human liver microsome clearance (HLM CL); type: in vitro ADME
Method: Working solution was prepared by adding 5 μL of compound and control stock solution (10 mM in dimethyl sulfoxide, DMSO) to 495 μL of acetonitrile (ACN) (intermediate solution concentration: 100 μM, 99% CAN and 1% DMSO. The appropriate concentrations of microsome working solutions were prepared in 100 mM potassium phosphate buffer. After reaction plates containing mixtures of compound and microsomes were pre-incubated at 37° C. for 10 min, […] of 2 mM of NADPH and 2 mM of MgCl2 solution was added to start the reaction. The final concentrations of incubation medium were as follows: microsome—0.5 mg protein/mL, test compound/control […], NADPH—1 mM, MgCl2 —1 mM, acetonitrile 0.99%, DMSO 0.01%. Incubations were performed at 37° C. for 60 min. Samples were taken out at TO, T5, T15, T30, T45 and T60, which was added intermediately to the ice-cold stop solution (acetonitrile with 200 ng/mL of tobutamide and labetalol as internal standard) (125 μl), shaken for 10 min, centrifuged at 4000 rpm for 20 min at 4° C. Analytical plates were analyzed by LCMS.
as §1

Jeko-1 = assay: CTG assay (CellTiter-Glo cell viability), Jeko-1, payload compounds; type: cell-based; conditions: Homo sapiens, JeKo-1; 72 h, CellTiter-Glo; read-out: JeKo-1 IC50
Description: (§2) The CTG assay is a method of determining the number of viable cells in culture based on quantitation of the ATP present, an indicator of metabolically active cells. The cell assay requires the addition of a single reagent, Cell Titer Glo, in which cells are lysed and generation of a luminescent signal is produced. The luminescent signal is proportional to the amount of ATP present. The amount of ATP is directly proportional to the number of cells present in culture. For our assay, cells were ensured to be in log-phase for either Jeko-1 or MDA-MB-468. Cells were transferred to 96 wells and treated with compounds in three-fold serial dilution starting from 1 μM to 0.0000508 μM (10 points dilution), for 72 h. Cell viability was analyzed with CellTiter-Glo® Luminescent Cell Viability Assay (Promega) following manufactures' instruction. Percentage of viable cells in each compound concentration was determined by normalizing with the luminescence of vehicle control and plotted into percentage of viability versus dose response curve by nonlinear fit in GraphPad Prism software.

MDA-MB-468 = assay: CTG assay (CellTiter-Glo cell viability), MDA-MB-468, payload compounds; type: cell-based; conditions: Homo sapiens, MDA-MB-468; 72 h, CellTiter-Glo; read-out: MDA-MB-468 IC50
Description: as §2

[3] = PAMPA (Parallel Artificial Membrane Permeability Assay); type: physicochemical
Description: PAMPA is a method which determines the permeability of substances from a donor compartment, through a lipid-infused artificial membrane into an acceptor compartment. See Ottaviani, G.; Martel, S.; Carrupt, P-A. “Parallel Artificial Membrane Permeability Assay: A New Membrane for the Fast Prediction of Passive Human Skin Permeability”, Journal of Medicinal Chemistry, 2006, 49 (13), 3948-3954). A multi-well microtitre plate is used for the donor and a membrane/acceptor compartment is placed on top; the whole assembly is commonly referred to as a “sandwich”. At the beginning of the test, the drug is added to the donor compartment, and the acceptor compartment is drug-free. After an incubation period which may include stirring, the sandwich is separated, and the amount of drug is measured in each compartment. Mass balance allows calculation of drug that remains in the membrane.
The PAMPA was performed by Pion Inc using the GIT-0 lipid and 5 μM donor solution in pH 5.0 and pH 7.4 PRISMA buffer (containing 0.05% DMSO). The higher PAMPA data has been associated with better bystander killing. (Ogitani Y.; Hagihara K.; Oitate, M.; Naito, H.; Agatsuma T. “Bystander killing effect of DS-8201a, a novel anti-human epidermal growth factor receptor 2 antibody-drug conjugate, in tumors with human epidermal growth factor receptor 2 heterogeneity” Cancer Science, 2016, 107 (7), 1039-1046).

CC[C@@]1(O)C(=O)OCc2c1cc1n(c2=O)Cc2c-1nc1cc(F)c(C)c3c1c2[C@H](O)CC3 (single isomer, unassigned) [Compound 3-34]
CLint scaled ([1]; human, hepatocytes): 79.2 mL/min/kg
half-life ([1]; human, hepatocytes): 48.7 min
CLint scaled ([2]; human, microsomes): 32.1 mL/min/kg
half-life ([2]; human, microsomes): 38.8 min
IC50 (Jeko-1): 0.59 nM
IC50 (MDA-MB-468): 6 nM
Papp at 5 μM ([3]; pH 5): 78.3 ×10⁻⁶ cm/s
Papp at 5 μM ([3]; pH 7.4): 8.2 ×10⁻⁶ cm/s

CC[C@@]1(O)C(=O)OCc2c1cc1n(c2=O)Cc2c-1nc1cc(F)c(C)c3c1c2[C@](C)(O)CC3 (single isomer, unassigned) [Compound 13-85]
CLint scaled ([1]; human, hepatocytes): 75.7 mL/min/kg
half-life ([1]; human, hepatocytes): 51 min
CLint scaled ([2]; human, microsomes): 58.3 mL/min/kg
half-life ([2]; human, microsomes): 21 min
IC50 (Jeko-1): 2.6 nM
IC50 (MDA-MB-468): 36.2 nM
Papp at 5 μM ([3]; pH 5): 69.7 ×10⁻⁶ cm/s
Papp at 5 μM ([3]; pH 7.4): 6 ×10⁻⁶ cm/s

CC[C@@]1(O)C(=O)OCc2c1cc1n(c2=O)Cc2c-1nc1cc(F)c(C)c3c1c2[C@](C)(OCCO)CC3 (single isomer, unassigned) [Compound 14-92]
CLint scaled ([1]; human, hepatocytes): 51.3 mL/min/kg
half-life ([1]; human, hepatocytes): 75.1 min
CLint scaled ([2]; human, microsomes): 19.2 mL/min/kg
half-life ([2]; human, microsomes): 65 min
IC50 (Jeko-1): 1.2 nM
IC50 (MDA-MB-468): 14.2 nM
Papp at 5 μM ([3]; pH 5): 69.1 ×10⁻⁶ cm/s
Papp at 5 μM ([3]; pH 7.4): 4.5 ×10⁻⁶ cm/s

CC[C@@]1(O)C(=O)OCc2c1cc1n(c2=O)Cc2c-1nc1cc(F)c(C)c3c1c2[C@](C)(NCCO)CC3.Cl [Compound 17-96, (1R,9S)-9-ethyl-5-fluoro-9-hydroxy-1-((2-hydroxyethyl)amino)-1,4-dimethyl-2,3,12,15-tetrahydrobenzo[de]pyrano[3′,4′:6,7]indolizino [1,2-b]quinoline-10,13(1H,9H)-dione hydrochloride]
half-life ([1]; human hepatocytes, 90 min incubation, read-out: HHEP (T1/2)): 82 min
CLint scaled ([1]; human hepatocytes, 90 min incubation, read-out: HHEP Cl (human hepatocytes intrinsic clearance)): 47.1 mL/min/kg
half-life ([2]; human liver microsomes 0.5 mg protein/mL, NADPH, 60 min, read-out: HLM (T1/2)): 17.5 min
CLint scaled ([2]; human liver microsomes 0.5 mg protein/mL, NADPH, 60 min, read-out: HLM Cl (human liver microsome clearance)): 71.3 mL/min/kg
IC50 (Jeko-1): 2.1 nM
IC50 (MDA-MB-468): 22 nM
Papp at 5 μM ([3]; pH 5.0 PRISMA buffer, GIT-0 lipid, 5 μM donor solution, read-out: PAMPA Pe pH 5.0): 62.6 ×10⁻⁶ cm/s
Papp at 5 μM ([3]; pH 7.4 PRISMA buffer, GIT-0 lipid, 5 μM donor solution, read-out: PAMPA Pe pH 7.4): 4.3 ×10⁻⁶ cm/s

CC[C@@]1(O)C(=O)OCc2c1cc1n(c2=O)Cc2c-1nc1cc(F)c(C)c3c1c2[C@@](C)(O)CC3 (single isomer, unassigned) [Compound 13-84]
CLint scaled ([1]; human, hepatocytes): 112 mL/min/kg
half-life ([1]; human, hepatocytes): 34 min
CLint scaled ([2]; human, microsomes): 58.9 mL/min/kg
half-life ([2]; human, microsomes): 21 min
IC50 (Jeko-1): 0.61 nM
IC50 (MDA-MB-468): 5.9 nM
Papp at 5 μM ([3]; pH 5): 64.4 ×10⁻⁶ cm/s
Papp at 5 μM ([3]; pH 7.4): 7.6 ×10⁻⁶ cm/s

CC[C@@]1(O)C(=O)OCc2c1cc1n(c2=O)Cc2c-1nc1cc(F)c(C)c3c1c2[C@@](C)(OCCO)CC3 (single isomer, unassigned) [Compound 14-91]
CLint scaled ([1]; human, hepatocytes): 63.4 mL/min/kg
half-life ([1]; human, hepatocytes): 60.8 min
CLint scaled ([2]; human, microsomes): 46.5 mL/min/kg
half-life ([2]; human, microsomes): 26.8 min
IC50 (Jeko-1): 1.4 nM
IC50 (MDA-MB-468): 17.6 nM
Papp at 5 μM ([3]; pH 5): 67.8 ×10⁻⁶ cm/s
Papp at 5 μM ([3]; pH 7.4): 5.6 ×10⁻⁶ cm/s
